This is an account of results in patent publication US20230312550A1, “N-(2-(4-CYANOTHIAZOLIDIN-3-YL)-2-OXOETHYL)-QUINOLINE-4-CARBOXAMIDES” (AstraZeneca AB, priority 2020, published 2023).

The nature of series [1]: Metabolic stability in human liver microsomes (HLM). To be noted: human. For orientation: Liver microsomes are vesicles of endoplasmic reticulum, rich in cytochrome P450 enzymes.
Protocol: Metabolic stability in HLM was measured as described in J Comput Aided Mol Des 2015, 29, 795.
The target of series [2] is Prolyl endopeptidase, Prolyl Oligopeptidase (hPREP) (Homo sapiens (Human), UniProt P48147). Nature of the series: hPrep inhibition assay. It counts as biochemical. To be noted: hPREP 0.6 nM, Z-Gly-Pro-amino-methylcoumarin 50 μM; read-out: PREP IC50. A digest of the protocol: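 Fluorogenic read-out (340 nm excitation, 460 nm emission) after 20 min at rt, using 50 μM final Z-Gly-Pro-aminomethylcoumarin and 0.6 nM final enzyme, following 15 min compound preincubation. Buffer pH 7.5 with glutathione and Triton X-100. IC50 via one-site model on % inhibition vs log concentration.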
Chain of Prolyl endopeptidase, Prolyl Oligopeptidase (hPREP) (P48147 whole entry): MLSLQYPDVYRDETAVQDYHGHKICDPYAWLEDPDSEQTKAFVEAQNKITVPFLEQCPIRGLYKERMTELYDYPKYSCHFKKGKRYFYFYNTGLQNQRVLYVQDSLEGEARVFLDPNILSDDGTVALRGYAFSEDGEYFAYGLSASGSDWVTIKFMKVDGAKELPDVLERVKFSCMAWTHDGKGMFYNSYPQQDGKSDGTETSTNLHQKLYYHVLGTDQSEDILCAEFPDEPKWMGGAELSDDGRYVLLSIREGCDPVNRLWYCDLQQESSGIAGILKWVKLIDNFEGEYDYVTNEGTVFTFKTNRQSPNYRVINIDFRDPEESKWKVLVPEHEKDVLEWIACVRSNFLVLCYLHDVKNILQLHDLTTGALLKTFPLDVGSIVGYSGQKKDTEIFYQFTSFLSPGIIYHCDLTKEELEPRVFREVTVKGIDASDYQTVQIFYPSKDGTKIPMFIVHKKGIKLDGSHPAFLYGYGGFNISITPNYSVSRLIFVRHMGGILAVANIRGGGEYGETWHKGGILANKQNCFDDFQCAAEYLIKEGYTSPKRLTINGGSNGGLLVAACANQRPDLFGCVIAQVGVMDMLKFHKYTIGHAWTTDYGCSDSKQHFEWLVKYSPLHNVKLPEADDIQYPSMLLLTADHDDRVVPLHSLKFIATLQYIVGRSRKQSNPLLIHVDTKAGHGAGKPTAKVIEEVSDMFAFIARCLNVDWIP

A short description of a further series: Kinetic solubility. As to conditions: kinetic from dmso stock.
For the next series, the target named is FAP (Homo sapiens (Human), UniProt Q12884). Nature of the series: hFAP inhibition assay. To be noted: hFAP […], Ala-Pro-AMC 20 μM; n = 1 or geometric mean n = 2-3. It counts as biochemical. Here is the method: 384 low volume black plates (Greiner #784076) were used. 4 μL, 0.48 nM enzyme solution (100 mM Tris HCl, 100 mM NaCl, 0.05% Chaps, pH 7.4) was added to 40 nL compounds (in DMSO) at 10 CR, 3 fold dilution series from 50 μM FAC. Plates were incubated for 15 min at rt in dark. 4 μL, 40 μM substrate solution (100 mM Tris HCl, 100 mM NaCl, 0.05% Chaps, pH 7.4) was added to each well. Plates were centrifuged at 1000 rpm and incubated for 30 min at rt in dark. The plates were read on a PHERAstar® reader with excitation 340 nm and emission 460 nm. Data were analyzed in Genedata Screener®. IC50 values were determined by plotting % inhibition versus log compound concentration and using a one site dose response model.
Chain of FAP (Q12884 38-760): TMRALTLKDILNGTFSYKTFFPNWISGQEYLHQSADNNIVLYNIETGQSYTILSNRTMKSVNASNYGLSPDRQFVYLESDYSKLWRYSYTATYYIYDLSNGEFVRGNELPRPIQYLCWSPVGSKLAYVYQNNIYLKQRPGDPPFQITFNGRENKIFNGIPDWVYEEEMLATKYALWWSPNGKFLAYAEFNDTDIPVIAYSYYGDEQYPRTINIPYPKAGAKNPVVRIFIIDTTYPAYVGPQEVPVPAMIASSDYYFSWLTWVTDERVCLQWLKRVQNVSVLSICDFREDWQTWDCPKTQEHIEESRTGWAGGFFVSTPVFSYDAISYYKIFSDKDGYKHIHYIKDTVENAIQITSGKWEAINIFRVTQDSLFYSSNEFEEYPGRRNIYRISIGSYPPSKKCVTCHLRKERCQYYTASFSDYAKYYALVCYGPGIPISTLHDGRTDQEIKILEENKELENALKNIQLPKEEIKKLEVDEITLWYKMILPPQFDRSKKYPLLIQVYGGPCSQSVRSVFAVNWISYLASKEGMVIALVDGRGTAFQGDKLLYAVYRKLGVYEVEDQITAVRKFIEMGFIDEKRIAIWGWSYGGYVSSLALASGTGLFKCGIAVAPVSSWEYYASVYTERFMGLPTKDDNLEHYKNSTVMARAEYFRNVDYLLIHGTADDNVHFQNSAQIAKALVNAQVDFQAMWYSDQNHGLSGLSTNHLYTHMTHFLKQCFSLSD

The target in series [3] is human Fibroblast activation protein alpha (hFAP) (Homo sapiens (Human), UniProt Q12884). Nature of the series: hFAP inhibition assay (tight binders). Further: hFAP 2.4 pM. It counts as biochemical. To be noted: Ala-Pro-AMC 20 μM, n = 1 or geometric mean n = 2-6. How it is done: The plates were read on a PHERAstar® reader with excitation 340 nm and emission 460 nm. Data were analyzed in Genedata Screener®. IC50 values were determined by plotting % inhibition versus log compound concentration and using a one site dose response model.
Chain of human Fibroblast activation protein alpha (hFAP) (Q12884 38-760): as above

Series [4] is described as follows: Metabolic stability in rat hepatocytes (rHep). As to conditions: n = 1 or geometric mean of n = 2-3.
Another series deals with hFAP (M39-A757) (Homo sapiens (Human), UniProt Q12884). The series can be described thus: hFAP binding assay (surface plasmon resonance). To be noted: SPR, 20° C.; for hFAP Binding assay k(off) / hFAP Binding assay k(on): single cycle kinetics; for Kd: n = 1 or geometric mean n = 2-4.
Chain of hFAP (M39-A757) (Q12884 39-757): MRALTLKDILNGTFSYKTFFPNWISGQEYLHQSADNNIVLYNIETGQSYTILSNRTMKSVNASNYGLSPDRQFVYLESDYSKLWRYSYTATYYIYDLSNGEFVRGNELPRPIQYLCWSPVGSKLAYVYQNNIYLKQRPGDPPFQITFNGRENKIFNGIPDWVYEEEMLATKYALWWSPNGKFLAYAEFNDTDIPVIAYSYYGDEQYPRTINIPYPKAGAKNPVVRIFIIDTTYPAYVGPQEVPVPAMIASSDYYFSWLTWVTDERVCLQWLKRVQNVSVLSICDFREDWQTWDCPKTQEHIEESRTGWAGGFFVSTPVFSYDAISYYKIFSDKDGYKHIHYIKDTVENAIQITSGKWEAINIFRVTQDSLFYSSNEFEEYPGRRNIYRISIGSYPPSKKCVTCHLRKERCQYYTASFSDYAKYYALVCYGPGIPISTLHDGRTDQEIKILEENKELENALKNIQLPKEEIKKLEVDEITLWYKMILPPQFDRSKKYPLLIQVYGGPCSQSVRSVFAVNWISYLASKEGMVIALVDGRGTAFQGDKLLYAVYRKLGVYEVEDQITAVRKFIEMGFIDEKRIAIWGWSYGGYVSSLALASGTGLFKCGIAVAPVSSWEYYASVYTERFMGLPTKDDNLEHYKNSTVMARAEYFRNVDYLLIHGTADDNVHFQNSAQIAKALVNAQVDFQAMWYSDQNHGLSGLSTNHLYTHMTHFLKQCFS
Where [5] appears, read: HLM CLint, n = 1 or average of n = 2-3.
Setting [6] is: Solubility, kinetic solubility, n = 1 or average of n = 2-3.

Broadly, the microsomal CLint is a measure of how fast metabolising enzymes remove a compound, apart from limits set by blood flow. A high value points to faster metabolism. The IC50 is the concentration that inhibits the measured activity by half. In general, solubility refers to the concentration that dissolves in the medium under given conditions. A high value points to a readily soluble substance. Usually Kd stands for the equilibrium constant for the complex coming apart. A lower Kd goes with tighter binding.

Values after ≈ are worked out from the molar mass of the structure shown.

Protocol for Kinetic solubility: Kinetic solubility was measured as described in Comput Aided Mol Des 2015, 29, 795.

In series [1], `N#C[C@@H]1CSCN1C(=O)CNC(=O)c1ccnc2ccc(N3CC4(CCC4)C3)cc12` [Example 17, (R)—N-(2-(4-Cyanothiazolidin-3-yl)-2-oxoethyl)-6-(2-azaspiro[3.3]heptan-2-yl)quinoline-4-carboxamide] came in with a microsomal CLint of 18 µL/min/mg. In addition, the values for the IC50 (in series [2]; against FAP; in series [3]) were 160 nM, 0.22 nM and 0.085 nM, respectively. Further, the solubility in the series “Kinetic solubility” amounted to 250 µM (≈ 105 µg/mL). The “rHep CLint” value in series [4] is given as 16 μL/min/1E6. For the same compound, the “hFAP Binding assay k(off)” value at hFAP (M39-A757) is 0.00012 s⁻¹. Also, the “hFAP Binding assay k(on)” value on hFAP (M39-A757) stood at 8300000 M⁻¹ s⁻¹. Moreover, at hFAP (M39-A757), the Kd was 0.015 nM.

In series [1], `N#C[C@@H]1CSCN1C(=O)CNC(=O)c1ccnc2ccc(N3CCC34CCC4)cc12` [Example 19, (R)—N-(2-(4-Cyanothiazolidin-3-yl)-2-oxoethyl)-6-(1-azaspiro[3.3]heptan-1-yl)quinoline-4-carboxamide] gave a microsomal CLint of 190 µL/min/mg. Besides, the IC50 in series [2] stood at 160 nM. In “Kinetic solubility”, this compound came in with a solubility of 480 µM (≈ 202 µg/mL). This compound showed an IC50 against FAP of 0.66 nM. Moreover, the IC50 in series [3] worked out at 0.38 nM. In series [4], the “rHep CLint” value is listed as 63 μL/min/1E6. Further, at hFAP (M39-A757), the “hFAP Binding assay k(off)” value came to 0.000066 s⁻¹, the “hFAP Binding assay k(on)” value was determined as 430000 M⁻¹ s⁻¹ and the Kd turned out to be 0.15 nM.

Take `CC1(C)CCN1c1ccc2nccc(C(=O)NCC(=O)N3CSC[C@H]3C#N)c2c1` [Example 20, (R)—N-(2-(4-Cyanothiazolidin-3-yl)-2-oxoethyl)-6-(2,2-dimethylazetidin-1-yl)quinoline-4-carboxamide]: the microsomal CLint in series [1] (setting [5]) came to 290 µL/min/mg. Also, the IC50 in series [2] was 430 nM; against FAP, 0.74 nM; in series [3] it was 0.43 nM. The same compound came in with a solubility in “Kinetic solubility” (setting [6]) of 900 µM (≈ 369 µg/mL). In addition, the “rHep CLint” value in series [4] is on record as 120 μL/min/1E6. The “hFAP Binding assay k(off)” value at hFAP (M39-A757) is 0.00012 s⁻¹. Also, the “hFAP Binding assay k(on)” value at hFAP (M39-A757) worked out at 4200000 M⁻¹ s⁻¹. Besides, the dissociation constant Kd on hFAP (M39-A757) was 0.03 nM.

In the case of `N#C[C@@H]1CSCN1C(=O)CNC(=O)c1ccnc2ccc(N3CC(F)(F)C3)cc12` [Example 23, (R)—N-(2-(4-Cyanothiazolidin-3-yl)-2-oxoethyl)-6-(3,3-difluoroazetidin-1-yl)quinoline-4-carboxamide], the microsomal CLint in series [1] (setting [5]) was found to be 25 µL/min/mg. In addition, the IC50 in series [2] was 160 nM; at FAP, 0.31 nM; in series [3] it was 0.2 nM. The same compound gave a solubility in the series “Kinetic solubility” (setting [6]) of 63 µM (≈ 26.3 µg/mL). Also, the “rHep CLint” value in series [4] is 27 μL/min/1E6. Also, the “hFAP Binding assay k(off)” value at hFAP (M39-A757) is 0.00018 s⁻¹. In addition, the “hFAP Binding assay k(on)” value on hFAP (M39-A757) came to 2100000 M⁻¹ s⁻¹. The same compound had a Kd at hFAP (M39-A757) of 0.085 nM.

In series [1] (setting [5]), `CC1CN(c2ccc3nccc(C(=O)NCC(=O)N4CSC[C@H]4C#N)c3c2)C1` [Example 25, (R)—N-(2-(4-Cyanothiazolidin-3-yl)-2-oxoethyl)-6-(3-methylazetidin-1-yl)-quinoline-4-carboxamide] returned a microsomal CLint of 23 µL/min/mg. Besides, the IC50 in series [2] came to 370 nM. In the series “Kinetic solubility” (setting [6]), this compound showed a solubility of 130 µM (≈ 51.4 µg/mL). This compound returned an IC50 against FAP of 0.41 nM. In addition, the IC50 in series [3] was 0.3 nM. Also, the “rHep CLint” value in series [4] is 14 μL/min/1E6. In addition, on hFAP (M39-A757), the “hFAP Binding assay k(off)” value worked out at 0.00011 s⁻¹, the “hFAP Binding assay k(on)” value was 1400000 M⁻¹ s⁻¹ and the Kd came out at 0.076 nM.

In series [1] (setting [5]), `N#C[C@@H]1CSCN1C(=O)CNC(=O)c1ccnc2ccc(N3CC(C(F)(F)F)C3)cc12` [Example 26, (R)—N-(2-(4-Cyanothiazolidin-3-yl)-2-oxoethyl)-6-(3-(trifluoromethyl)-azetidin-1-yl)quinoline-4-carboxamide] came in with a microsomal CLint of 31 µL/min/mg. The IC50 in series [2] stood at 580 nM. The concentration in solution in the series “Kinetic solubility” (setting [6]) (solubility) was 15 µM (≈ 6.74 µg/mL). This compound also returned an IC50 against FAP of 0.31 nM. In series [3], this compound returned an IC50 of 0.1 nM. In series [4], the “rHep CLint” value stood at 7.6 μL/min/1E6. At hFAP (M39-A757), the “hFAP Binding assay k(off)” value was determined as 0.000065 s⁻¹, the “hFAP Binding assay k(on)” value was 1300000 M⁻¹ s⁻¹ and binding was put at a Kd of 0.056 nM.
